In patent US20100234455A1, “Histone Deacetylase Inhibitors” (Errant Gene Therapeutics, LLC, priority 2004, published 2010):

Tests used:
[1] = system: LNCaP cells (human prostate cancer cells); assay: p53 acetylation, p21 and Bax effects in LNCaP cells; type: cell-based
[2] = system: PC-3 cells; assay: Bax and p21 activation in PC-3 cells (p53-/-, no HDAC2); type: cell-based; conditions: do not express HDAC2
[3] = system: tumors; conditions: cited from earlier work
[4] = system: HDAC; conditions: cited from earlier work
[5] = system: rat fibroblasts; conditions: cited from earlier work

Structure (SMILES) | level of histone acetylation [1] | Bax mitochondrial translocation and cleavage ([1]; LNCaP cells) | cell cycle arrest ([1]; LNCaP cells) | degradation of HDAC2 ([1]; LNCaP cells) | levels of total p53 ([1]; LNCaP cells) | p21 levels ([1]; LNCaP cells) | steady state level of cytosolic Bax ([1]; LNCaP cells) | acetylation of p53 at Lys320 ([1]; Lys320) | acetylation of p53 at Lys373 and Lys382 ([1]; Lys373 and Lys382) | p53 dependent activation of Bax [2] | p53 independent p21 activation [2] | formation of tumors in mice [3] | HDAC activity [4] | cell cycle arrest of rat fibroblasts [5]
O=C(C=CC=CC=Cc1ccccc1)NO [7-phenyl-2,4,6-heptatrienoylhydroxamic acid] | increasing the level of histone acetylation | induced Bax mitochondrial translocation and cleavage | cell cycle arrest, primarily at G2/M interface | induction of selective degradation of HDAC2 | increases the levels of total p53 | p53-dependent increase in p21 levels | increased the steady state level of cytosolic Bax | not Lys320 | stabilizes the acetylation of p53 at amino acids Lys373 and Lys382 | absent | p53 independent p21 activation was observed | – | – | –
O=C(CCCCCCC(=O)Nc1ccccc1)NO [SAHA, suberoylanilide hydroxamic acid] | – | – | – | – | – | – | – | – | – | – | – | prevent the formation of tumors in mice | HDAC activity is inhibited | –
CC(/C=C/C(=O)NO)=C\[C@@H](C)C(=O)c1ccc(N(C)C)cc1 [TSA, trichostatin A] | – | nor did it affect Bax translocation and cleavage | induced p21 and cell cycle arrest | – | – | induced p21 | did not alter Bax levels | – | – | absent | p53 independent p21 activation was observed | prevent the formation of tumors in mice | HDAC activity is inhibited | causes arrest of rat fibroblasts at the G1 and G2 phases of the cell cycle
